According to US6235742A, “5-substituted pyrazolo[4,3-D]pyrimidin-7-ones” (Pfizer Inc., priority 1997, dated 2001):
Entries after “also recorded” stand apart in the source; their conditions may differ. Like-named read-outs stand apart in the source and are kept apart here.

Assays:
Format in all cases: biochemical
[1] = target: T1, PDE1 (calcium/calmodulin (Ca/CAM)-dependent PDE) (Homo sapiens, UniProt Q14123); assay: PDE inhibition, PDE type 1 from human cardiac ventricle; conditions: PDE type 1, human cardiac ventricle
T1 construct: obtained from either human cardiac ventricle or rat kidney; from tissue; host or cells: human cardiac ventricle
T1 sequence (Q14123 1-634 isoform Q14123-2): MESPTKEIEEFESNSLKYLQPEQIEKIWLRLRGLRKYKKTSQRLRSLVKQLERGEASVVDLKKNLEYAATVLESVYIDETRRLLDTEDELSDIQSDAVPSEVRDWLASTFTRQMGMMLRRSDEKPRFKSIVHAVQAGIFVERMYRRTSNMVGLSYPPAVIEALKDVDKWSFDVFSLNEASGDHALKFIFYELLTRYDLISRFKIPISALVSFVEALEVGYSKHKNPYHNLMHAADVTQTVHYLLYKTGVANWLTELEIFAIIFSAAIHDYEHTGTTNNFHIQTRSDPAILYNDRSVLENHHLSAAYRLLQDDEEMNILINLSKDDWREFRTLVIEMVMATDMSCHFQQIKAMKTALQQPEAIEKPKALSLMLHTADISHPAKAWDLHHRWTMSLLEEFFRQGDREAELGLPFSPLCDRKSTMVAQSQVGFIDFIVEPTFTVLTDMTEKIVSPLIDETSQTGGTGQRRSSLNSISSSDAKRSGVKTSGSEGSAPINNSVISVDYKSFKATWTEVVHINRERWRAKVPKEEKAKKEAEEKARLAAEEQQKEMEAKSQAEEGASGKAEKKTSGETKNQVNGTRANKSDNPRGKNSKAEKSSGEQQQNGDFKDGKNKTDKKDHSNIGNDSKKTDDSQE
Text: (§1) In vitro PDE inhibitory activities against cyclic guanosine 3', 5'-monophosphate (cGMP) and cyclic adenosine 3', 5'-monophosphate (cAMP) phosphodiesterases can be determined by measurement of their IC50 inhibition of enzyme activity.
(§2) The required PDE enzymes are isolated from a variety of sources, including rat kidney, human corpus cavernosum, human platelets, rabbit platelets, human cardiac ventricle, human skeletal muscle and bovine retina, essentially by the method of W J Thompson and M M Appleman (Biochem, 1971, 10, 311).
(§3) For example, for some of the studies the calcium/calmodulin (Ca/CAM)-dependent PDE (PDE1) is obtained from either human cardiac ventricle or rat kidney. The cGMP-stimulated PDE (PDE2), the cGMP-specificPDE (PDE5) and the cGMP-inhibited cAMP PDE (PDE3) are obtained from human corpus cavernosum tissue. PDE5 is also obtained from human platelets or rabbit platelets by techniques usual in the art. The cAMP-specific PDE (PDE4) is obtained from rat kidney. The photoreceptor PDE (PDE6) is obtained from bovine retina.
(§4) Assays are performed using a modification of the "batch" method of W J Thompson et al (Biochem, 1979, 18, 5228).

[2] = target: T2, PDE2 (cGMP-stimulated PDE) (Homo sapiens, UniProt O00408); assay: PDE inhibition, PDE type 2 from human corpus cavernosum; conditions: PDE type 2, human corpus cavernosum
T2 construct: are obtained from human corpus cavernosum tissue; from tissue; host or cells: human corpus cavernosum
T2 sequence (O00408 whole entry): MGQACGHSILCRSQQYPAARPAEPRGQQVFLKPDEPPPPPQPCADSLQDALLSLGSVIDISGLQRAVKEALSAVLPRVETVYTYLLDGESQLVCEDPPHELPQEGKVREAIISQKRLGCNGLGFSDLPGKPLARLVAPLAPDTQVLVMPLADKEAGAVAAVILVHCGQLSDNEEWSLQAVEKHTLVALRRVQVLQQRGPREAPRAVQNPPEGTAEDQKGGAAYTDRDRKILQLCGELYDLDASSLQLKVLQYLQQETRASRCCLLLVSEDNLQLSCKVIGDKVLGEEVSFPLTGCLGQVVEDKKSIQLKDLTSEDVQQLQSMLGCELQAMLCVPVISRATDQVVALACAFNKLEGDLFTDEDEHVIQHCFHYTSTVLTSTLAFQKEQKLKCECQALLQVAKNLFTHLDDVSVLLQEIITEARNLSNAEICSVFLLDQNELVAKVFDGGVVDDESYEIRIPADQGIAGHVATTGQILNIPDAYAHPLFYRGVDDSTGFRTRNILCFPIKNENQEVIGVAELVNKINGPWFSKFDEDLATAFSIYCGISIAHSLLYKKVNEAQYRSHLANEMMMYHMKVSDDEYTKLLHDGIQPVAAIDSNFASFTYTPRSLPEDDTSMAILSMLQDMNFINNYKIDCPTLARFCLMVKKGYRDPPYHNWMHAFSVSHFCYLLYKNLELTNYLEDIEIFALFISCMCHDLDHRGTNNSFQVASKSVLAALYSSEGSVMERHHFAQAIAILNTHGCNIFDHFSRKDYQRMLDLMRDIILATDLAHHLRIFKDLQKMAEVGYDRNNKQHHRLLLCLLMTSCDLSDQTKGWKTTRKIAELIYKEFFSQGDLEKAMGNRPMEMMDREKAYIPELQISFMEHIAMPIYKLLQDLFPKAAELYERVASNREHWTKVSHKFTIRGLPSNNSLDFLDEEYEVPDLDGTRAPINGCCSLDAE
Text: as §1, §2, §3, §4

[3] = system: PDE3 (cGMP-inhibited cAMP PDE); assay: PDE inhibition, PDE type 3 from human corpus cavernosum; conditions: PDE type 3, human corpus cavernosum
Text: as §1, §2, §3, §4

[4] = system: PDE4 (cAMP-specific PDE); assay: PDE inhibition, PDE type 4 from rat kidney; conditions: PDE type 4, rat kidney
Text: as §1, §2, §3, §4

[5] = target: T3, PDE5 (cGMP-specific PDE) (Homo sapiens, UniProt O76074); assay: PDE inhibition, PDE type 5 from human corpus cavernosum; conditions: PDE type 5, human corpus cavernosum
T3 construct: are obtained from human corpus cavernosum tissue; from tissue; host or cells: human corpus cavernosum
Text: as §1, §2, §3, §4

[6] = target: T4, PDE6 (photoreceptor PDE) (Bos taurus, UniProt P11541+P23439); assay: PDE inhibition, PDE type 6 from bovine retina; conditions: PDE type 6, bovine retina
T4 construct: The photoreceptor PDE (PDE6) is obtained from bovine retina; from tissue; host or cells: bovine retina
T4 sequence (P11541 2-856 limits assumed): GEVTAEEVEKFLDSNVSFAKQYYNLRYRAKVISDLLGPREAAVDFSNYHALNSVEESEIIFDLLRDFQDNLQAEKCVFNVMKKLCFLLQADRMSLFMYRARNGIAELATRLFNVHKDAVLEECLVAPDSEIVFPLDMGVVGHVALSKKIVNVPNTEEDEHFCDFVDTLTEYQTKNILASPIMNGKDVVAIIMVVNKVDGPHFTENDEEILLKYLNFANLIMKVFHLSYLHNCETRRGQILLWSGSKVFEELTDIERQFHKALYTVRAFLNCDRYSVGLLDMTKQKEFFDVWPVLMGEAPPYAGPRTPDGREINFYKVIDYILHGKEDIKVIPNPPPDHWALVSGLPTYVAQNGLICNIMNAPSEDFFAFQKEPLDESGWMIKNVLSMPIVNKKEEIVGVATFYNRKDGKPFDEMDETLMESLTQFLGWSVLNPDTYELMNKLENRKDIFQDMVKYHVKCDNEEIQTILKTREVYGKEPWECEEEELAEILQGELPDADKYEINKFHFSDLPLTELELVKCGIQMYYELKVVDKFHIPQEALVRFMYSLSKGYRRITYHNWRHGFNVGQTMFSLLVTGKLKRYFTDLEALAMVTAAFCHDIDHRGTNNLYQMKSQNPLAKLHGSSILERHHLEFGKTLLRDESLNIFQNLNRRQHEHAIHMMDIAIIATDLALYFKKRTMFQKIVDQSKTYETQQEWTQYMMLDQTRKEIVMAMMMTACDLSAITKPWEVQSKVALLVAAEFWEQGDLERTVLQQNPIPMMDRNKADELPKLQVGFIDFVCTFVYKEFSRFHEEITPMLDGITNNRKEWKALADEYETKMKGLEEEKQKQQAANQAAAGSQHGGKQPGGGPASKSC
T4 sequence (P23439 2-850 limits assumed): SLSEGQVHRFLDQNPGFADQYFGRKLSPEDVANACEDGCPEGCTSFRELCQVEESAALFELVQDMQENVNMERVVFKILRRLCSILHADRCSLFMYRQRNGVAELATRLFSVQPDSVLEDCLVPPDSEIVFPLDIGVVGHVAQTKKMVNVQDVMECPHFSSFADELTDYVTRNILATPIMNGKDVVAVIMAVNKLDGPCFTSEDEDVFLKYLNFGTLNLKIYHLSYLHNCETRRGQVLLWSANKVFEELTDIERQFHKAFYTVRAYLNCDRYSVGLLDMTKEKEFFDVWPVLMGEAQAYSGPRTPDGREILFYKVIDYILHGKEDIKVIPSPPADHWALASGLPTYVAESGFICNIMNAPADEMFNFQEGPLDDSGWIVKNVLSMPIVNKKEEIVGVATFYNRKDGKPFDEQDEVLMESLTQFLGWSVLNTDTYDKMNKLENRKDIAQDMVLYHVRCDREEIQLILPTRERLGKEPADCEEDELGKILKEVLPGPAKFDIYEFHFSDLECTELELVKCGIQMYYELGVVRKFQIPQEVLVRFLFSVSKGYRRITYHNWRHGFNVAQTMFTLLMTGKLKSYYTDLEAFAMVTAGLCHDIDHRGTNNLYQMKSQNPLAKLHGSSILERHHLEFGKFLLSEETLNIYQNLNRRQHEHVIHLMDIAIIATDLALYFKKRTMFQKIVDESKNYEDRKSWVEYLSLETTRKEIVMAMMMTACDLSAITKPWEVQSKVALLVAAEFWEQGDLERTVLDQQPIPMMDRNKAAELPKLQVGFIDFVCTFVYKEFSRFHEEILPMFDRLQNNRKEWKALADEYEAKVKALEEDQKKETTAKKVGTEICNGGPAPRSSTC
Text: as §1, §2, §3, §4

[7] = system: PDE1 (calcium/calmodulin (Ca/CAM)-dependent PDE); assay: PDE1 inhibition, rat kidney
Text: as §1, §2, §3, §4

[8] = target: T5, PDE5 (Oryctolagus cuniculus, UniProt G1SX67); assay: PDE5 inhibition, rabbit platelet
T5 construct: PDE5 is also obtained from human platelets or rabbit platelets; from tissue; host or cells: rabbit platelets
Text: as §1, §2, §3, §4

[9] = target: T6, PDE5 (Homo sapiens, UniProt O76074); assay: PDE5 inhibition, human platelet; conditions: comparative study
T6 construct: PDE5 is also obtained from human platelets or rabbit platelets; from tissue; host or cells: human platelets
Text: as §1, §2, §3, §4

[10] = system: Ca/CAM-dependent PDE1; assay: PDE1 inhibition stated in words (source not given); conditions: for potency and selectivity as PDE1 inhibitor: summary in words
Text: as §1, §2, §3, §4

[11] = rat kidney, comparative study, cGMP, read-out: cGMP / PDE1 INHIBITION - IC50 Values
[12] = rabbit platelet, comparative study, read-out: PDE5 INHIBITION - IC50 Values
[13] = further studies, IC50 per protocol, read-out: RAT KIDNEY PDE1
[14] = further studies, IC50 per protocol, read-out: RABBIT PLATELET PDE5

| IC50 [1] [nM] | IC50 [2] [nM] | IC50 [3] [nM] | IC50 [4] [nM] | IC50 [5] [nM] | IC50 [6] [nM] | IC50 [7, 11] [nM] | IC50 [8, 12] [nM] | IC50 [9] [nM] | IC50 [7, 13] [nM] | IC50 [8, 14] [nM] | SMILES | potency and selectivity as PDE1 inhibitor [10] | PDE1 inhibition ([10]; statement in words) |
| --- | --- | --- | --- | --- | --- | --- | --- | --- | --- | --- | --- | --- | --- |
| 38 | 1990 | 3940 | 23000 | 2490 | 2030 | 37 | 6700 | 2700 | – | – | CCCc1nn(C)c2c(=O)[nH]c(Cc3ccc(N(CC)CC)cc3)nc12 [Example 50, 5-[4-(diethylamino)benzyl]-1-methyl-3-propyl-6,7-dihydro-1H-pyrazolo[4,3-d]pyrimidin-7-one] | potent and selective PDE1 inhibitors | – |
| – | – | – | – | – | – | – | – | – | 94 | 6400 | CCCc1nn(C)c2c(=O)[nH]c(Cc3ccc(NS(=O)(=O)c4ccccc4)cc3)nc12 [Example 37] | potent and selective PDE1 inhibitors | – |
| – | – | – | – | – | – | – | – | – | 59 | 1800 | CCCc1nn(C)c2c(=O)[nH]c(Cc3ccccc3NS(C)(=O)=O)nc12 [Example 36] | potent and selective PDE1 inhibitors | – |
| – | – | – | – | – | – | 9900 | 2800 | 3200 | – | – | Cc1nn(C)c2c(=O)[nH]c(Cc3ccc(N(C)C)cc3)nc12 ['188 compound, reference compound] | – | not as effective at such low concentrations; also recorded: at least a weak PDE1 inhibitor |
